The source of these data is ChEMBL document CHEMBL5518206, “Hit-to-Lead Identification and Validation of a Triaromatic Pleuromutilin Antibiotic Candidate” (J Med Chem, 2024).

Data set [1] in a line: Inhibition of P-gp efflux in MDCKII-MDR1 cells using calcein-AM as substrate assessed as intracellular calcein fluorescence preincubated for 15 mins followed by substrate addition and measured by fluorescence based assay. It counts as cell-based. As to conditions: Canis lupus familiaris.
Data set [2] has as its system Enterococcus faecium. As to the kind of experiment: Antibacterial activity against Linezolid/Ampicillin/ciprofloxacin/Vancomycin-resistant Enterococcus faecium assessed as inhibition of visible growth incubated for 20 to 24 hrs by microbroth serial dilution assay. It counts as functional. As to conditions: time 20-24 hrs, read-out: MIC100. For orientation: In broth dilution the organism is exposed to a series of concentrations in liquid medium.

Data set [3] deals with Enterococcus faecium. The data set is described as follows: Antibacterial activity against Vancomycin-resistant Enterococcus faecium assessed as inhibition of visible growth incubated for 20 to 24 hrs by microbroth serial dilution assay. The class given is functional. As to conditions: time 20-24 hrs, read-out: MIC100.
The test system of a further data set is MDCK-MDR1. As to the kind of experiment: Cytotoxicity against MDCKII-MDR1 cells assessed as cell viability at 100 uM measured by MTT assay. As to conditions: dog, mdck-mdr1, 100 µM. It counts as toxicity, cell-based, Canis lupus familiaris.
A further data set deals with Staphylococcus aureus. The data set is described as follows: Antibacterial activity against multi drug-resistant Staphylococcus aureus USA300 FPR3757 assessed as inhibition of visible growth incubated for 20 to 24 hrs by microbroth serial dilution assay. As to conditions: time 20-24 hrs, read-out: MIC100. The class given is functional.
A further data set has as its system Streptococcus pneumoniae. As to the kind of experiment: Antibacterial activity against Streptococcus pneumoniae assessed as inhibition of visible growth incubated for 20 to 24 hrs by microbroth serial dilution assay. The class given is functional. As to conditions: time 20-24 hrs, read-out: MIC100.
Data set [4] in a line: Solubility of the compound in Dulbecco's PBS at 20 degree C measured after 24 hrs.
A further data set has as its system Enterococcus faecalis. As to the kind of experiment: Antibacterial activity against Enterococcus faecalis assessed as inhibition of visible growth incubated for 20 to 24 hrs by microbroth serial dilution assay. As to conditions: time 20-24 hrs, read-out: MIC100. The class given is functional.
A short description of data set [5]: in vitro. As to conditions: mouse.
The nature of data set [6]: in vitro. As to conditions: human.
Data set [7] is described as follows: in vitro. As to conditions: mouse. The source holds these as a separate data set.
Data set [8] can be described thus: in vitro. As to conditions: human. This is another data set of the same source.
A further data set has as its system Listeria. The data set is described as follows: Antibacterial activity against Listeria assessed as inhibition of visible growth incubated for 20 to 24 hrs by microbroth serial dilution assay. The class given is functional, organism-based. As to conditions: time 20-24 hrs.
In data set [9] the test system is Staphylococcus epidermidis. The data set is described as follows: Antibacterial activity against Staphylococcus epidermidis assessed as inhibition of visible growth incubated for 20 to 24 hrs by microbroth serial dilution assay. The class given is functional, organism-based. As to conditions: time 20-24 hrs.
The subject of the next data set is Escherichia coli. As to the kind of experiment: Antibacterial activity against Escherichia coli assessed as inhibition of visible growth incubated for 20 to 24 hrs by microbroth serial dilution assay. It counts as functional, organism-based. As to conditions: time 20-24 hrs.
The nature of data set [10]: in vitro. As to conditions: pig.
Data set [11] can be described thus: in vitro. As to conditions: pig. The source holds these as a separate data set.

One may read the IC50 as the concentration needed to halve the response being measured. The solubility is how much of the substance goes into solution per volume. Read a high solubility as a readily soluble substance. Usually CLint scaled stands for the rate of metabolic loss divided by the concentration. Broadly, the half-life is how long it takes for the measured level to halve. A lower half-life goes with rapid decline.

Structures are written as SMILES. In brackets after ≈: the same amount, converted by molar mass. Activity calls are given as the source filed them. The rule behind the calls is not given here.

Regarding `C=C[C@]1(C)C[C@@H](OC(=O)Cn2cc(-c3ccc(Cn4cnc5c(N)nc(N)nc54)cc3)nn2)[C@]2(C)[C@H](C)CC[C@]3(CCC(=O)[C@H]32)[C@@H](C)[C@@H]1O`, the IC50 in data set [1] was greater than 100 µM. Besides, the MIC turned out to be 0.12 µg/mL (≈ 0.18 µM) with Enterococcus faecium [2]; 0.12 µg/mL (≈ 0.18 µM) in the data set on Enterococcus faecium [3]; 0.06 µg/mL (≈ 0.0898 µM) in the data set with Staphylococcus aureus; 0.5 µg/mL (≈ 0.749 µM) in the data set with Streptococcus pneumoniae; 0.25 µg/mL (≈ 0.374 µM) with Enterococcus faecalis. Besides, the Activity entry in the data set with MDCK-MDR1 is “Non-Toxic”. The amount in solution in [4] (solubility at 24 h) came to 1.9 µM (≈ 1.27 µg/mL).

For the compound `C=C[C@]1(C)C[C@@H](OC(=O)Cn2cc(-c3ccc(Cn4cnc5c(N)ncnc54)nc3)nn2)[C@]2(C)[C@H](C)CC[C@]3(CCC(=O)[C@H]32)[C@@H](C)[C@@H]1O`, the IC50 in [1] is 98 µM. In addition, the MIC was found to be 0.12 µg/mL (≈ 0.184 µM) in the data set with Enterococcus faecium [2]; 0.12 µg/mL (≈ 0.184 µM) in the data set with Enterococcus faecium [3]; 0.03 µg/mL (≈ 0.0459 µM) with Staphylococcus aureus; 0.25 µg/mL (≈ 0.382 µM) in the data set with Streptococcus pneumoniae; 0.25 µg/mL (≈ 0.382 µM) in the data set on Enterococcus faecalis. Moreover, the results for the intrinsic clearance (CLint scaled) at 0.5 h, 1 µM in the data set “in vitro [5]” (liver microsomes) and in the data set “in vitro [8]” (liver microsomes) were 571 L/h/kg and 194 L/h/kg, respectively. For the same compound, in the data set on MDCK-MDR1, the Activity result was “Non-Toxic”. Also, the half-life at 0.5 h, 1 µM in “in vitro [6]” (liver microsomes) came to 1.9 min; in “in vitro [7]” (liver microsomes), 0.58 min. The compound also came in with a solubility at 24 h in data set [4] of 6.7 µM (≈ 4.38 µg/mL).

For `C=C[C@]1(C)C[C@@H](OC(=O)Cn2cc(-c3ccc([C@@H](C)n4cnc5c(N6CCNCC6)ncnc54)cc3)nn2)[C@]2(C)[C@H](C)CC[C@]3(CCC(=O)[C@H]32)[C@@H](C)[C@@H]1O`, in data set [1], the IC50 was 7 µM. The MIC in the data set with Enterococcus faecium [2] came to 0.25 µg/mL (≈ 0.34 µM); with Enterococcus faecium [3], 0.25 µg/mL (≈ 0.34 µM); in the data set with Staphylococcus aureus, 0.25 µg/mL (≈ 0.34 µM); with Streptococcus pneumoniae, 0.25 µg/mL (≈ 0.34 µM); in the data set on Enterococcus faecalis it was 0.5 µg/mL (≈ 0.679 µM). This compound also displayed a solubility at 24 h in data set [4] of 10 µM (≈ 7.36 µg/mL).

With `C=C[C@]1(C)C[C@@H](OC(=O)Cn2cc(-c3ccc(Cn4cnc5c(N)ncnc54)c(OC)c3)nn2)[C@]2(C)[C@H](C)CC[C@]3(CCC(=O)[C@H]32)[C@@H](C)[C@@H]1O`, the IC50 in [1] was 46 µM. For the same compound, the MIC is 0.12 µg/mL (≈ 0.176 µM) in the data set with Enterococcus faecium [2]; 0.12 µg/mL (≈ 0.176 µM) with Enterococcus faecium [3]; 0.06 µg/mL (≈ 0.0879 µM) in the data set with Staphylococcus aureus; 0.25 µg/mL (≈ 0.366 µM) in the data set with Streptococcus pneumoniae; 0.25 µg/mL (≈ 0.366 µM) in the data set on Enterococcus faecalis. Besides, in [4], the concentration in solution (solubility at 24 h) came to 2.2 µM (≈ 1.5 µg/mL).

`C=C[C@]1(C)C[C@@H](OC(=O)Cn2cc(-c3ccc(Cn4cnc5c(N6CCNCC6)ncnc54)cc3)nn2)[C@]2(C)[C@H](C)CC[C@]3(CCC(=O)[C@H]32)[C@@H](C)[C@@H]1O`: the IC50 in data set [1] was 10 µM. Further, the MIC in the data set with Enterococcus faecium [2] is 0.12 µg/mL (≈ 0.166 µM); in the data set with Enterococcus faecium [3] it was 0.06 µg/mL (≈ 0.0831 µM); with Staphylococcus aureus, 0.25 µg/mL (≈ 0.346 µM); in the data set with Streptococcus pneumoniae it was 0.25 µg/mL (≈ 0.346 µM); in the data set with Enterococcus faecalis, 0.25 µg/mL (≈ 0.346 µM). For the same compound, the solubility at 24 h in [4] came out at 31 µM (≈ 22.4 µg/mL).

`C=C[C@]1(C)C[C@@H](OC(=O)Cn2cc(-c3ccc([C@H](C)n4cnc5c(N6CCNCC6)ncnc54)cc3)nn2)[C@]2(C)[C@H](C)CC[C@]3(CCC(=O)[C@H]32)[C@@H](C)[C@@H]1O`: the MIC in the data set on Enterococcus faecium [2], in the data set on Enterococcus faecium [3], in the data set with Staphylococcus aureus, with Streptococcus pneumoniae and with Enterococcus faecalis was 0.5 µg/mL (≈ 0.679 µM) in each case.

Take `C=C[C@]1(C)C[C@@H](OC(=O)Cn2cc(-c3ccc(Cn4cnc5c(N)ncnc54)c(O)c3)nn2)[C@]2(C)[C@H](C)CC[C@]3(CCC(=O)[C@H]32)[C@@H](C)[C@@H]1O`: the IC50 in data set [1] is greater than 100 µM. In addition, the MIC in the data set with Enterococcus faecium [2] turned out to be 0.25 µg/mL (≈ 0.374 µM); in the data set with Enterococcus faecium [3], 0.25 µg/mL (≈ 0.374 µM); in the data set on Staphylococcus aureus it was 0.03 µg/mL (≈ 0.0449 µM); in the data set with Streptococcus pneumoniae, 0.25 µg/mL (≈ 0.374 µM); in the data set with Enterococcus faecalis, 0.25 µg/mL (≈ 0.374 µM). Further, the CLint scaled at 0.5 h, 1 µM amounted to 586 L/h/kg in “in vitro [5]” (liver microsomes) and 317 L/h/kg in the data set “in vitro [8]” (liver microsomes). In the data set with MDCK-MDR1, the Activity entry is recorded as “Non-Toxic”. In addition, the half-life at 0.5 h, 1 µM was 1.2 min in the data set “in vitro [6]” (liver microsomes) and 0.56 min in the data set “in vitro [7]” (liver microsomes). Moreover, the solubility at 24 h in data set [4] was 2.5 µM (≈ 1.67 µg/mL).

`C=C[C@]1(C)C[C@@H](OC(=O)Cn2cc(-c3ccc([C@@H](C)n4cnc5c(N)ncnc54)cc3)nn2)[C@]2(C)[C@H](C)CC[C@]3(CCC(=O)[C@H]32)[C@@H](C)[C@@H]1O`: the IC50 in data set [1] is 50 µM. The MIC in the data set with Enterococcus faecium [2] is 0.25 µg/mL (≈ 0.375 µM); in the data set with Enterococcus faecium [3], 0.25 µg/mL (≈ 0.375 µM); in the data set on Staphylococcus aureus, 0.12 µg/mL (≈ 0.18 µM); in the data set on Streptococcus pneumoniae, 0.25 µg/mL (≈ 0.375 µM); in the data set on Enterococcus faecalis it was 0.5 µg/mL (≈ 0.75 µM). The same compound returned a solubility at 24 h in data set [4] of 2.6 µM (≈ 1.73 µg/mL).

On to `C=C[C@]1(C)C[C@@H](OC(=O)Cn2cc(-c3ccc(Cn4cnc5c(N6CCN(C)CC6)ncnc54)cc3)nn2)[C@]2(C)[C@H](C)CC[C@]3(CCC(=O)[C@H]32)[C@@H](C)[C@@H]1O`, for which the IC50 in data set [1] is 2 µM. The outcome (with Listeria; in [9]; in the data set with Escherichia coli) was inactive. The MIC with Enterococcus faecium [2] and with Streptococcus pneumoniae was 0.12 µg/mL (≈ 0.163 µM) in each case. For the same compound, the half-life at 0.5 h, 1 µM was 0.5 min in “in vitro [10]” (liver microsomes), 1.4 min in “in vitro [6]” (liver microsomes) and 1.1 min in “in vitro [7]” (liver microsomes). The CLint scaled at 0.5 h, 1 µM in “in vitro [5]” (liver microsomes) is 293 L/h/kg; in “in vitro [8]” (liver microsomes), 266 L/h/kg; in the data set “in vitro [11]” (liver microsomes), 630 L/h/kg. Also, the Activity entry in the data set on MDCK-MDR1 is on record as “Non-Toxic”.

Regarding `O=C(O)Cc1ccccc1Nc1c(Cl)cccc1Cl` [DICLOFENAC], the half-life at 0.5 h, 1 µM in the data set “in vitro [10]” (microsomes) worked out at 37.9 min; in the data set “in vitro [6]” (microsomes) it was 18.8 min; in the data set “in vitro [7]” (microsomes) it was 51.7 min. For the same compound, the CLint scaled at 0.5 h, 1 µM in the data set “in vitro [5]” (microsomes) is 6.36 L/h/kg; in “in vitro [8]” (microsomes), 19.9 L/h/kg; in “in vitro [11]” (microsomes) it was 8.7 L/h/kg.

With `C=C[C@]1(C)C[C@@H](OC(=O)Cn2cc(-c3ccc([C@H](C)n4cnc5c(N)ncnc54)cc3)nn2)[C@]2(C)[C@H](C)CC[C@]3(CCC(=O)[C@H]32)[C@@H](C)[C@@H]1O`, the IC50 in data set [1] is 81 µM. For the same compound, the MIC with Enterococcus faecium [2] came to 0.5 µg/mL (≈ 0.75 µM); in the data set on Enterococcus faecium [3] it was 0.5 µg/mL (≈ 0.75 µM); in the data set with Staphylococcus aureus it was 0.12 µg/mL (≈ 0.18 µM); in the data set with Streptococcus pneumoniae, 1 µg/mL (≈ 1.5 µM); in the data set with Enterococcus faecalis it was 1 µg/mL (≈ 1.5 µM).
